Experimental data from patent US11225645B2 (priority 2002, dated 2022).
“Also recorded” adds a separate entry of the source. Where two headings read alike, the source gives them in different places.

How the values were obtained:
[1] = test system: coenzyme-binding glucose dehydrogenase; assay: Substrate specificity and Km value, Enzymatic activity measurement method 1; type: biochemical, Aspergillus terreus
Description: Employing each of D-glucose and other substrates (each at 333 mM as a final concentration, except for D-cellobiose at 193 mM, D-trehalose and D-raffinose at 121 mM), the enzymatic activity of this enzyme was measured by the Enzymatic activity measurement method 1. The activity on each substrate is represented as a relative value to the activity of this enzyme on D-glucose being regarded as 100%, and shown in Table 1.
Similarly, the relative reactivities (enzymatic activity) on D-glucose and maltose each at two final concentrations, i.e. 550 mM and 100 mM, were measured. The results are represented as relative values based on the value on D-glucose.

[2] = test system: coenzyme-binding glucose dehydrogenase; assay: Inhibitor test, additives added to Enzymatic activity measurement method 1; type: biochemical, Aspergillus terreus
[3] = target: glucose dehydrogenase whose coenzyme is the pyrroloquinolinequinone derived from Escherichia coli (Escherichia coli, UniProt P15877); conditions: relative to glucose = 100%; cited from earlier work
[4] = test system: glucose dehydrogenase whose coenzyme is the pyrroloquinolinequinone derived from Pseudomonas sp.; conditions: relative to glucose = 100%; cited from earlier work
[5] = target: glucose dehydrogenase whose coenzyme is the pyrroloquinolinequinone derived from Gluconobacter suboxydans (Gluconobacter oxydans, UniProt P27175); conditions: relative to glucose = 100%; cited from earlier work
[6] = test system: glucose dehydrogenase whose coenzyme is a flavin adenine dinucleotide of Aspergillus oryzae; conditions: cited from earlier work
[7] = additive 1 mM final concentration
[8] = substrate 333 mM final, activity on D-glucose = 100%
[9] = substrate 121 mM final, activity on D-glucose = 100%
[10] = substrate final conc. 100 mM, D-glucose = 100%
[11] = substrate final conc. 550 mM, D-glucose = 100%

Sequence of glucose dehydrogenase whose coenzyme is the pyrroloquinolinequinone derived from Escherichia coli (P15877 whole entry): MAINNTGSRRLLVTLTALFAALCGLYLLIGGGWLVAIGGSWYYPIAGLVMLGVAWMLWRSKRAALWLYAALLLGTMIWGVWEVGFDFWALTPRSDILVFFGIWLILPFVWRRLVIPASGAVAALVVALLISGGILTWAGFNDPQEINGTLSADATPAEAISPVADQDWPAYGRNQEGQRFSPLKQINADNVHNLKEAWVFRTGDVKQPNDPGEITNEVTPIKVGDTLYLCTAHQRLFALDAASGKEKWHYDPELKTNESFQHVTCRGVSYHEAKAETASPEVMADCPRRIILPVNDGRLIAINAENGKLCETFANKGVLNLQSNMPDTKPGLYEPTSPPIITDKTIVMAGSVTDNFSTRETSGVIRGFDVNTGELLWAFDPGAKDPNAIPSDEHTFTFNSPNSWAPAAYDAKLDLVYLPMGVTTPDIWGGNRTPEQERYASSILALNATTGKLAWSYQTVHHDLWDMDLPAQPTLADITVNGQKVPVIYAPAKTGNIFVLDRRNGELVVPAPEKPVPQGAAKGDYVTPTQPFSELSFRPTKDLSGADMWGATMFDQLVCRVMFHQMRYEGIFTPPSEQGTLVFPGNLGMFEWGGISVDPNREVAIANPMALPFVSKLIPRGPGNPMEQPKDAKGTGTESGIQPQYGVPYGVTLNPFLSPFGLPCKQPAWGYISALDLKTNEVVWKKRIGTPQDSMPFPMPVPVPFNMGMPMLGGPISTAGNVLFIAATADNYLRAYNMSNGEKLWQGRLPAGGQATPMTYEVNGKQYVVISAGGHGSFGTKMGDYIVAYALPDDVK
Sequence of glucose dehydrogenase whose coenzyme is the pyrroloquinolinequinone derived from Gluconobacter suboxydans (P27175 34-808): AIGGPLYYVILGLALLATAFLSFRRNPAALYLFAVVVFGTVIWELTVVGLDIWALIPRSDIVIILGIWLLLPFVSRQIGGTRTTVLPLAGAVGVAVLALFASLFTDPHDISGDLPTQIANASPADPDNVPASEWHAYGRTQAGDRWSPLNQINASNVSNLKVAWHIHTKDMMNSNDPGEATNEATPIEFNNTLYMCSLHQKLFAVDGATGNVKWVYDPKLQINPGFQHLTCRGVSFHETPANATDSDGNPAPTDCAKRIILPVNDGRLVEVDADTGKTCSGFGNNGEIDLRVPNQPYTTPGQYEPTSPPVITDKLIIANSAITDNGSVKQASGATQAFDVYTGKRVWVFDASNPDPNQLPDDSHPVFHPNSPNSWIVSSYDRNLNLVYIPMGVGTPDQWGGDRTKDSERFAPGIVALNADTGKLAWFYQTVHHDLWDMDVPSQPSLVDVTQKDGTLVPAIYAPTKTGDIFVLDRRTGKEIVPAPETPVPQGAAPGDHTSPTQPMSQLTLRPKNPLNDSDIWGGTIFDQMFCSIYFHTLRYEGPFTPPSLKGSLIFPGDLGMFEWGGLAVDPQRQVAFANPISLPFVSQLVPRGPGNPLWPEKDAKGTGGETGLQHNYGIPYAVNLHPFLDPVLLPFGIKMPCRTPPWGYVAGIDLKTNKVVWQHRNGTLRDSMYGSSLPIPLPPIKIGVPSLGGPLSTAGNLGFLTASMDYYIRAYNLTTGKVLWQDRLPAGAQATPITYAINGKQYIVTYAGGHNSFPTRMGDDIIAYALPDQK

| Compound | Activity of the enzyme on the substrate (in words) ([1]; summary of Tables 1 and 2) | Inhibition (%) [2] | Inhibition (%) [2, 7] | also measured |
| --- | --- | --- | --- | --- |
| OC[C@H]1O[C@@H](O[C@H]2[C@H](O)[C@@H](O)[C@H](O)O[C@@H]2CO)[C@H](O)[C@@H](O)[C@@H]1O [D-Cellobiose] | lower activity; also recorded: weakly | – | – | Relative activity (%) ([1]; substrate 193 mM final, activity on D-glucose = 100%): 2% |
| O=C(O)CI [Iodoacetic acid] | – | 9.5% | – | – |
| [Cl][Pb][Cl] [PbCl2] | – | 2.7% | – | – |
| Acriflavine | – | – | 49.0% | – |
| O=C(O)CN(CCN(CC(=O)O)CC(=O)O)CC(=O)O [EDTA] | – | 0.4% | – | – |
| [Cl][Cu][Cl] [CuCl2] | – | 100% | – | Inhibitory effect (in words) [2]: highest; also recorded: inhibited potently |
| [Cl-].[Na+] [NaCl] | – | 2.5% | – | – |
| Nc1ccc2cc3ccc(N)cc3nc2c1 [Proflavin] | – | – | 62.0% | – |
| O=S(=O)([O-])c1cc(O)c(O)c(S(=O)(=O)[O-])c1.[Na+].[Na+] [Tirone] | – | 2.5% | – | – |
| O=CC[C@@H](O)[C@H](O)[C@H](O)CO [2-Deoxy-D-glucose] | – | – | – | Relative activity (%) [1, 8]: 48% |
| [Cl-].[Cl-].[Zn+2] [ZnCl2] | – | 0% | – | – |
| O=[N+]([O-])[O-].[Ag+] [AgNO3] | – | 99.4% | – | Inhibitory effect (in words) [2]: highest; also recorded: inhibited potently |
| O=C(O)CC(O)C(=O)O (stereo not shown) [Malic acid] | – | – | 8.1% | – |
| NN=C(N)N.O=S(=O)(O)O [Aminoguanidine sulfate] | – | 1.1% | – | – |
| O=C(O)c1ccccc1 [Benzoic acid] | – | 0% | – | – |
| [Ca+2].[Cl-].[Cl-] [CaCl2] | – | 5.7% | – | – |
| CCN(CC)CCCC(C)Nc1c2ccc(Cl)cc2nc2ccc(OC)cc12 (stereo not shown) [Quinacrine] | – | – | 5.0% | – |
| OO [H2O2] | – | 1.7% | – | – |
| O=C[C@H](O)[C@@H](O)[C@@H](O)CO [L-Arabinose] | Almost no activity; also recorded: almost no effect | – | – | Relative activity (%) [1, 8]: 0.1> % |
| C[C@H](O)[C@H](O)[C@@H](O)[C@@H](O)C=O [L-Rhamnose] | Almost no activity; also recorded: almost no effect | – | – | Relative activity (%) [1, 8]: 0.1> % |
| OC[C@H]1O[C@@](CO)(O[C@H]2O[C@H](CO)[C@@H](O)[C@H](O)[C@H]2O)[C@@H](O)[C@@H]1O [Sucrose] | Almost no activity; also recorded: almost no effect | – | – | Relative activity (%) [1, 8]: 0.1> % |
| O=C[C@H](O)[C@@H](O)[C@H](O)CO [D-Xylose] | – | – | – | Relative activity (%) [1, 8]: 9.1% |
| Oc1cccc2cccnc12 [8-Quinolinol] | – | 13.9% | – | – |

| Compound | Activity of the enzyme on the substrate (in words) ([1]; summary of Tables 1 and 2) | Inhibition (%) [2] | Inhibition (%) [2, 7] | also measured |
| --- | --- | --- | --- | --- |
| OC[C@H]1O[C@H](O[C@H]2O[C@H](CO)[C@@H](O)[C@H](O)[C@H]2O)[C@H](O)[C@@H](O)[C@@H]1O [D-Trehalose] | lower activity; also recorded: weakly | – | – | Relative activity (%) [1, 9]: 1.7% |
| CC(O)C(=O)O.CCOc1ccc2nc3cc(N)ccc3c(N)c2c1 [Acrinol] | – | – | 29.0% | – |
| O=C[C@H](O)[C@@H](O)[C@@H](O)[C@H](O)CO [D-Galactose] | lower activity; also recorded: weakly | – | – | Relative activity (%) [1, 8]: 1.2% |
| TritonX-100 | – | – | 6.2% | – |
| [Cl-].[Li+] [LiCl] | – | – | 0.9% | – |
| O=C(O)/C=C/C(=O)O [Fumaric acid] | – | – | 3.4% | – |
| OC[C@H]1O[C@@H](O[C@H]2[C@H](O)[C@@H](O)C(O)O[C@@H]2CO)[C@H](O)[C@@H](O)[C@H]1O (stereo partly shown) [Lactose] | Almost no activity; also recorded: almost no effect | – | – | Relative activity (%) [1, 8]: 0.1> % |
| [N-]=[N+]=[N-].[Na+] [NaN3] | – | 0% | – | – |
| CC(C)(S)C(N)C(=O)O (racemic) [DL-Penicillamine] | – | – | 4.3% | – |
| O=C[C@@H](O)[C@@H](O)[C@H](O)[C@H](O)CO [D-Mannose] | lower activity; also recorded: weakly | – | – | Relative activity (%) [1, 8]: 2.8% |
| OCC(O)CO [Glycerol] | Almost no activity; also recorded: almost no effect | – | – | Relative activity (%) [1, 8]: 0.1> % |
| [Cl][Sn][Cl] [SnCl2] | – | 45.5% | – | – |
| O=C(O)/C=C\C(=O)O [Maleic acid] | – | – | 26.2% | – |
| O=C[C@H](O)[C@@H](O)[C@H](O)[C@H](O)COP(=O)(O)O [D-Glucose-6-phosphate] | lower activity; also recorded: weakly | – | – | Relative activity (%) [1, 8]: 1.1% |
| O=P(O)(O)O[C@H]1O[C@H](CO)[C@@H](O)[C@H](O)[C@H]1O [D-Glucose-1-phosphate] | Almost no activity; also recorded: almost no effect | – | – | Relative activity (%) [1, 8]: 0.1> % |
| CCO [Ethanol] | Almost no activity; also recorded: almost no effect | – | – | Relative activity (%) [1, 8]: 0.1> % |
| O=C[C@H](O)[C@H](O)[C@H](O)CO [D-Ribose] | Almost no activity; also recorded: almost no effect | – | – | Relative activity (%) [1, 8]: 0.1> % |
| O=C(O)C(O)C(O)C(=O)O (stereo not drawn) [Meso-tartaric acid] | – | – | 5.6% | – |
| [Cl-].[Cl-].[Mg+2] [MgCl2] | – | 2.8% | – | – |
| NC(N)=O [Urea] | – | – | 1.9% | – |
| O=C(CO)[C@@H](O)[C@H](O)[C@@H](O)CO [L-Sorbose] | Almost no activity; also recorded: almost no effect | – | – | Relative activity (%) [1, 8]: 0.1> % |
| OC[C@H]1OC[C@H](O)[C@@H](O)[C@@H]1O [1,5-Anhydro-D-glucitol] | lower activity; also recorded: weakly | – | – | Relative activity (%) [1, 8]: 2% |
| OC[C@H]1O[C@H](O[C@H]2[C@H](O)[C@@H](O)[C@H](O)O[C@@H]2CO)[C@H](O)[C@@H](O)[C@@H]1O [Maltose] | lower activity; also recorded: weakly | – | – | Relative activity (%) [1, 8]: 1.4%; Relative activity (%) [1, 10]: 0.5%; Relative activity (%) [1, 11]: 2.8%; Activity on maltose [3]: 3%; Activity on maltose [4]: 3.2%; Activity on maltose [5]: 5% |

| Compound | Activity of the enzyme on the substrate (in words) ([1]; summary of Tables 1 and 2) | Inhibition (%) [2] | Inhibition (%) [2, 7] | also measured |
| --- | --- | --- | --- | --- |
| O=C(O)c1ccccc1[N+](=O)[O-] [2-Nitrobenzoic acid] | – | – | 44.3% | – |
| N[C@@H]1CON=C1O [Cycloserine] | – | – | 3.6% | – |
| O=C(CO)[C@@H](O)[C@H](O)[C@H](O)CO [D-Fructose] | lower activity; also recorded: weakly | – | – | Relative activity (%) [1, 8]: 0.86% |
| c1cnc2c(c1)ccc1cccnc12 [1,10-Phenanthroline] | – | – | 62.0% | Inhibitory effect ([2]; 1 mM final concentration, methanol 10% (v/v)): 62.0%; Inhibit (%) ([2]; 5 mM final concentration, methanol 10% (v/v)): 76%; Inhibit (%) ([2]; 10 mM final concentration, methanol 10% (v/v)): 85%; Inhibit (%) ([2]; 25 mM final concentration, methanol 10% (v/v)): 91%; Inhibit (%) ([2]; 50 mM final concentration, methanol 10% (v/v)): 95%; Inhibition (in words) [6]: not inhibited |
| CoCl2 | – | 7.0% | – | – |
| c1ccc(-c2ccccn2)nc1 [2,2′-Bipyridine] | – | – | 10.8% | – |
| O=C[C@H](O)[C@@H](O)[C@H](O)[C@H](O)CO [D-Glucose] | higher activity; also recorded: potently | – | – | Km [1]: 49.7 mM; Relative activity (%) [1, 8]: 100%; Relative activity (%) [1, 10]: 100%; Relative activity (%) [1, 11]: 100% |
| OC[C@H]1O[C@H](OC[C@H]2O[C@H](O[C@]3(CO)O[C@H](CO)[C@@H](O)[C@@H]3O)[C@H](O)[C@@H](O)[C@@H]2O)[C@H](O)[C@@H](O)[C@H]1O [D-Raffinose] | Almost no activity; also recorded: almost no effect | – | – | Relative activity (%) [1, 9]: 0.1> % |
| NCCS [Cysteamine] | – | – | 9.8% | – |
| OC[C@@H](O)[C@@H](O)[C@H](O)[C@@H](O)CO [D-Sorbitol] | Almost no activity; also recorded: almost no effect | – | – | Relative activity (%) [1, 8]: 0.1> % |
| OC[C@@H](O)[C@@H](O)[C@H](O)[C@H](O)CO [D-Mannitol] | Almost no activity; also recorded: almost no effect | – | – | Relative activity (%) [1, 8]: 0.1> % |
| [Ba+2].[Cl-].[Cl-] [BaCl2] | – | – | 2.6% | – |
| O=C(O)[C@H](O)[C@@H](O)[C@H](O)[C@H](O)CO [Gluconic acid] | – | – | – | Activity of the enzyme on the substrate (in words) [1]: Almost no activity; also recorded: almost no effect; Relative activity (%) [1]: 0.1> % |
| O=C(O)[C@@H](O)[C@H](O)C(=O)O [D-Tartaric acid] | – | – | 8.5% | – |
| [Cl][Cd][Cl] [CdCl2] | – | 0.8% | – | – |
| [Cl][Ni][Cl] [NiCl2] | – | 16.5% | – | – |
| [Cl][Hg][Cl] [HgCl2] | – | – | 100% | Inhibitory effect (in words) ([2]; additive 1 mM final concentration, listed as Hg^2+): highest; also recorded: inhibited potently |
| O=C(O)CC(O)(CC(=O)O)C(=O)O [Citric acid] | – | – | 5.6% | – |
| [Cl][Al]([Cl])[Cl] [AlCl3] | – | 0% | – | – |
| [Cl][Fe]([Cl])[Cl] [FeCl3] | – | 25.0% | – | – |
| CCN1C(=O)C=CC1=O [N-Ethylmaleimide] | – | – | 1.8% | – |
